{"source": "DBAASP", "experiment_in_all_cases": "≥ marks a high value that may be exact or a test limit, other limits are often not marked, values filed in µg/mL are converted to µM", "key": {"[1]": {"system": "Candida albicans CIB 45437"}, "[2]": {"system": "Escherichia coli ATCC 25726"}, "[3]": {"system": "Escherichia coli ATCC 25922"}, "[4]": {"system": "Escherichia coli CIB 84492"}, "[5]": {"system": "Staphylococcus aureus ATCC 25923"}, "[6]": {"system": "Staphylococcus aureus CIB 85462"}, "[7]": {"system": "Candida albicans ATCC 3007"}, "[8]": {"system": "Escherichia coli ATCC 25629"}, "Escherichia coli": {"system": "Escherichia coli"}, "[9]": {"system": "Shigella dysenteriae ATCC 2932"}, "Shigella dysenteriae": {"system": "Shigella dysenteriae"}, "[10]": {"system": "Staphylococcus aureus ATCC 2576"}, "Staphylococcus aureus": {"system": "Staphylococcus aureus"}, "Bacillus megaterium Bm11": {"system": "Bacillus megaterium Bm11"}, "Candida albicans": {"system": "Candida albicans"}, "Citrobacter freundii": {"system": "Citrobacter freundii"}, "Enterococcus faecium": {"system": "Enterococcus faecium"}, "Escherichia coli ML-35": {"system": "Escherichia coli ML-35"}, "Klebsiella pneumoniae": {"system": "Klebsiella pneumoniae"}, "Micrococcus luteus": {"system": "Micrococcus luteus"}, "[11]": {"system": "Pseudomonas aeruginosa ATCC 27853"}, "Pseudomonas aeruginosa": {"system": "Pseudomonas aeruginosa"}, "[12]": {"system": "Salmonella enterica subsp. enterica serovar Typhimurium ATCC 14028"}, "[13]": {"system": "Staphylococcus aureus 710A"}, "[14]": {"system": "Staphylococcus aureus LT1334"}, "[15]": {"system": "Staphylococcus aureus LT1338"}, "[16]": {"system": "Staphylococcus epidermidis LT1324"}, "[17]": {"system": "Staphylococcus haemolyticus"}, "Staphylococcus simulans": {"system": "Staphylococcus simulans"}, "[18]": {"system": "Stenotrophomonas maltophilia"}, "[19]": {"system": "Acinetobacter baumannii I NM8"}, "[20]": {"system": "Candida albicans ATCC 90028"}, "[21]": {"system": "Klebsiella pneumoniae ATCC 700603"}, "[22]": {"system": "Staphylococcus aureus NCTC 8325"}, "[23]": {"system": "Bacillus subtilis KCTC 3068"}, "Cryptococcus neoformans": {"system": "Cryptococcus neoformans"}, "Escherichia coli D21": {"system": "Escherichia coli D21"}, "[24]": {"system": "Escherichia coli KCTC 1682"}, "[25]": {"system": "Escherichia coli O18:K1:H7 Bort"}, "[26]": {"system": "Pseudomonas aeruginosa KCTC 1637"}, "[27]": {"system": "Salmonella typhimurium KCTC 1926"}, "[28]": {"system": "Serratia marcescens ATCC 8100"}, "Serratia marcescens": {"system": "Serratia marcescens"}, "[29]": {"system": "Staphylococcus aureus Cowan 1"}, "[30]": {"system": "Staphylococcus aureus KCTC 1621"}, "[31]": {"system": "Staphylococcus epidermidis ATCC 12228"}, "[32]": {"system": "Staphylococcus epidermidis KCTC 1917"}, "Streptococcus agalactiae": {"system": "Streptococcus agalactiae"}}, "note": "Where “and” joins values, the source holds several entries; their conditions need not be identical. Equal values may be shown once.", "data": [{"smiles": "CC[C@H](C)[C@@H]1NC(=O)[C@H](C)NC(=O)[C@@H](NC(=O)[C@H](Cc2ccccc2)NC(=O)[C@@H](NC(=O)[C@@H](NC(=O)[C@@H]2CCCN2C(=O)[C@@H](NC(=O)[C@@H](NC(=O)[C@H](CCC(N)=O)NC(=O)[C@H](C)NC(=O)[C@H](C)NC(=O)[C@@H](NC(=O)[C@H](CCCN=C(N)N)NC(=O)[C@H](CC(C)C)NC(=O)[C@@H](NC(=O)[C@H](C)NC(=O)[C@@H]2CCCN2C(=O)[C@H](CC(C)C)NC(=O)[C@@H](N)Cc2ccccc2)C(C)C)C(C)C)C(C)C)C(C)C)[C@@H](C)O)C(C)C)CSSC[C@@H](C(=O)O)NC(=O)[C@H](CCCCN)NC(=O)[C@H](CCCCN)NC(=O)[C@H](CO)NC1=O", "note": "[FLPAVLRVAAQVVPTVFCAISKKC]", "values": [{"measurement": "MIC", "setting": "[1]", "result": "≥ 50", "unit": "µM"}, {"measurement": "MIC", "setting": "[2]", "result": "≥ 48.8", "unit": "µM"}, {"measurement": "MIC", "setting": "[3]", "result": 50, "unit": "µM"}, {"measurement": "MIC", "setting": "[4]", "result": 25, "unit": "µM"}, {"measurement": "MIC", "setting": "[5]", "result": 3.12, "unit": "µM"}, {"measurement": "MIC", "setting": "[6]", "result": 12.5, "unit": "µM"}]}, {"smiles": "CSCC[C@H](NC(=O)[C@H](CCCCN)NC(=O)[C@@H]1CCCN1C(=O)[C@H](CC(C)C)NC(=O)[C@@H](N)Cc1ccccc1)C(=O)N[C@@H](CO)C(=O)N[C@H](C(=O)N[C@@H](CCCCN)C(=O)N[C@@H](CC(C)C)C(=O)N[C@@H](CCCN=C(N)N)C(=O)N[C@H](C(=O)N1CCC[C@H]1C(=O)N[C@@H](Cc1ccc(O)cc1)C(=O)N[C@@H](CCCN=C(N)N)C(=O)N[C@@H](CCCN=C(N)N)C(=O)NCC(=O)N[C@H](C(=O)N[C@@H](CCCCN)C(=O)N[C@@H](CC(=O)O)C(=O)N[C@@H](Cc1ccc(O)cc1)C(=O)N[C@@H](Cc1cnc[nH]1)C(=O)O)[C@@H](C)O)C(C)C)[C@@H](C)O", "note": "[FLPKMSTKLRVPYRRGTKDYH]", "values": [{"measurement": "MIC", "setting": "[7]", "result": 5.78, "unit": "µM"}, {"measurement": "MIC", "setting": "[8]", "result": 4.82, "unit": "µM"}, {"measurement": "MIC", "setting": "Escherichia coli", "result": 5.78, "unit": "µM"}, {"measurement": "MIC", "setting": "[9]", "result": 2.89, "unit": "µM"}, {"measurement": "MIC", "setting": "Shigella dysenteriae", "result": 2.89, "unit": "µM"}, {"measurement": "MIC", "setting": "[10]", "result": 0.463, "unit": "µM"}, {"measurement": "MIC", "setting": "Staphylococcus aureus", "result": 1.93, "unit": "µM"}]}, {"smiles": "CC[C@H](C)[C@H](NC(=O)[C@H](CCCN=C(N)N)NC(=O)[C@H](C)NC(=O)[C@H](CC(C)C)NC(=O)[C@H](CCCN=C(N)N)NC(=O)CNC(=O)[C@H](Cc1ccccc1)NC(=O)[C@@H](NC(=O)[C@H](CO)NC(=O)CNC(=O)[C@H](CC(C)C)NC(=O)CN)C(C)C)C(=O)N[C@@H](CC(C)C)C(=O)NCC(=O)N[C@@H](CCCN=C(N)N)C(=O)N[C@H](C(=O)N[C@H](C(=O)N1CCC[C@H]1C(=O)N[C@@H](CCCCN)C(=O)N[C@H](C(N)=O)C(C)C)[C@@H](C)CC)C(C)C", "note": "[GLGSVFGRLARILGRVIPKV]", "values": [{"measurement": "MIC", "setting": "Bacillus megaterium Bm11", "result": 2, "unit": "µM"}, {"measurement": "MIC", "setting": "Candida albicans", "result": "> 4", "unit": "µM"}, {"measurement": "MIC", "setting": "Citrobacter freundii", "result": 2, "unit": "µM"}, {"measurement": "MIC", "setting": "Enterococcus faecium", "result": 2, "unit": "µM"}, {"measurement": "MIC", "setting": "Escherichia coli ML-35", "result": 2, "unit": "µM"}, {"measurement": "MIC", "setting": "Escherichia coli", "result": 2.83, "unit": "µM"}, {"measurement": "MIC", "setting": "Klebsiella pneumoniae", "result": 2, "unit": "µM"}, {"measurement": "MIC", "setting": "Micrococcus luteus", "result": 0.5, "unit": "µM"}, {"measurement": "MIC", "setting": "[11]", "result": 8, "unit": "µM"}, {"measurement": "MIC", "setting": "Pseudomonas aeruginosa", "result": 4, "unit": "µM"}, {"measurement": "MIC", "setting": "[12]", "result": 8, "unit": "µM"}, {"measurement": "MIC", "setting": "[13]", "result": 4, "unit": "µM"}, {"measurement": "MIC", "setting": "[14]", "result": 1.5, "unit": "µM"}, {"measurement": "MIC", "setting": "[15]", "result": 3, "unit": "µM"}, {"measurement": "MIC", "setting": "Staphylococcus aureus", "result": 2, "unit": "µM"}, {"measurement": "MIC", "setting": "[16]", "result": 2, "unit": "µM"}, {"measurement": "MIC", "setting": "[17]", "result": 2, "unit": "µM"}, {"measurement": "MIC", "setting": "Staphylococcus simulans", "result": 2, "unit": "µM"}, {"measurement": "MIC", "setting": "[18]", "result": 2, "unit": "µM"}]}, {"smiles": "CC[C@H](C)[C@H](NC(=O)[C@@H](NC(=O)[C@H](C)NC(=O)[C@H](CCCCN)NC(=O)[C@H](C)NC(=O)[C@@H](NC(=O)[C@H](CCCCN)NC(=O)CNC(=O)[C@H](CC(C)C)NC(=O)[C@H](C)NC(=O)[C@@H](NC(=O)CNC(=O)[C@H](C)NC(=O)[C@H](CCCCN)NC(=O)[C@@H](NC(=O)[C@H](C)NC(=O)[C@H](CCSC)NC(=O)CN)[C@@H](C)O)[C@@H](C)O)C(C)C)C(C)C)C(=O)NCC(=O)N[C@@H](C)C(=O)N[C@@H](C)C(=O)N[C@@H](CC(C)C)C(N)=O", "note": "[GMATKAGTALGKVAKAVIGAAL]", "values": [{"measurement": "MIC", "setting": "[19]", "result": 25, "unit": "µM"}, {"measurement": "MIC", "setting": "[20]", "result": "≥ 100", "unit": "µM"}, {"measurement": "MIC", "setting": "[2]", "result": "≥ 100", "unit": "µM"}, {"measurement": "MIC", "setting": "[3]", "result": "> 100", "unit": "µM"}, {"measurement": "MIC", "setting": "[21]", "result": "> 50", "unit": "µM"}, {"measurement": "MIC", "setting": "[5]", "result": "160 µM and 100 µM"}, {"measurement": "MIC", "setting": "[22]", "result": "≥ 100", "unit": "µM"}]}, {"smiles": "CC[C@H](C)[C@H](NC(=O)[C@@H](NC(=O)[C@@H]1CCCN1C(=O)[C@H](CO)NC(=O)[C@H](CC(C)C)NC(=O)[C@H](CCCCN)NC(=O)[C@H](CCCCN)NC(=O)[C@H](Cc1ccccc1)NC(=O)[C@H](CC(C)C)NC(=O)[C@H](CCCCN)NC(=O)[C@H](CCCCN)NC(=O)[C@H](Cc1ccccc1)NC(=O)[C@H](CCCCN)NC(=O)[C@H](CCCCN)NC(=O)[C@H](CCCN=C(N)N)NC(=O)[C@H](Cc1ccccc1)NC(=O)[C@H](CCCN=C(N)N)NC(=O)[C@H](CCCCN)NC(=O)[C@H](Cc1ccccc1)NC(=O)[C@H](CCCN=C(N)N)NC(=O)CN)C(C)C)C(=O)N1CCC[C@H]1C(=O)N[C@@H](CC(C)C)C(=O)N[C@@H](CC(C)C)C(=O)N[C@@H](Cc1cnc[nH]1)C(=O)N[C@@H](CC(C)C)C(=O)NCC(N)=O", "note": "[GRFKRFRKKFKKLFKKLSPVIPLLHLG]", "values": [{"measurement": "MIC", "setting": "Bacillus megaterium Bm11", "result": 2, "unit": "µM"}, {"measurement": "MIC", "setting": "[23]", "result": 2, "unit": "µM"}, {"measurement": "MIC", "setting": "Candida albicans", "result": 8, "unit": "µM"}, {"measurement": "MIC", "setting": "Cryptococcus neoformans", "result": 4, "unit": "µM"}, {"measurement": "MIC", "setting": "Enterococcus faecium", "result": 5.66, "unit": "µM"}, {"measurement": "MIC", "setting": "[3]", "result": 1, "unit": "µM"}, {"measurement": "MIC", "setting": "Escherichia coli D21", "result": 0.25, "unit": "µM"}, {"measurement": "MIC", "setting": "[24]", "result": 4, "unit": "µM"}, {"measurement": "MIC", "setting": "Escherichia coli ML-35", "result": 1, "unit": "µM"}, {"measurement": "MIC", "setting": "[25]", "result": 0.5, "unit": "µM"}, {"measurement": "MIC", "setting": "[11]", "result": 1, "unit": "µM"}, {"measurement": "MIC", "setting": "[26]", "result": 2, "unit": "µM"}, {"measurement": "MIC", "setting": "[12]", "result": 1, "unit": "µM"}, {"measurement": "MIC", "setting": "[27]", "result": 1, "unit": "µM"}, {"measurement": "MIC", "setting": "[28]", "result": 2, "unit": "µM"}, {"measurement": "MIC", "setting": "Serratia marcescens", "result": 2.83, "unit": "µM"}, {"measurement": "MIC", "setting": "[5]", "result": 2, "unit": "µM"}, {"measurement": "MIC", "setting": "[29]", "result": 2, "unit": "µM"}, {"measurement": "MIC", "setting": "[30]", "result": 4, "unit": "µM"}, {"measurement": "MIC", "setting": "Staphylococcus aureus", "result": 4, "unit": "µM"}, {"measurement": "MIC", "setting": "[31]", "result": 1, "unit": "µM"}, {"measurement": "MIC", "setting": "[32]", "result": 2, "unit": "µM"}, {"measurement": "MIC", "setting": "Streptococcus agalactiae", "result": 2.83, "unit": "µM"}]}]}
